Residues, ends and D or L forms follow the SMILES beside them. *: point of attachment. Boc = CC(C)(C)OC(=O)*; Bn = c1ccc(C*)cc1
melting point	SMILES
109 to 111 °C	CC(C)[C@H](NC(=O)N(C)CCc1ccccn1)C(=O)N[C@@H](Cc1ccccc1)[C@H](O)[C@@H](O)[C@H](Cc1ccccc1)NC(=O)[C@@H](NC(=O)N(C)CCc1ccccn1)C(C)C
58 °C	C[C@H](CCN(CCCCNC(=O)[C@@H](NC(=O)CCCCCCNC(=NC(=O)OCc1ccccc1)NC(=O)OCc1ccccc1)O[C@@H](C)c1ccc2ccccc2c1)C(=O)OCc1ccccc1)NC(=O)OCc1ccccc1
177 to 185 °C	N=C(NC(=O)OCc1ccccc1)N(CCCC(NC(=O)C(Cc1ccccc1)NC(=O)c1ccccc1)C(=O)Oc1cccc2ccccc12)C(=O)OCc1ccccc1 (centres undefined)
200 to 202 °C	CCCCCCCCCCCCN(CCCCCCCCCCCC)S(=O)(=O)c1cc(NS(=O)(=O)c2ccc(NC(C)=O)c3c(O)c(N=Nc4ccccc4OC)ccc23)c(O)c2ccccc12
96 to 98 °C	CCCCCCCCCCCCCCCCCCN(CCCCCCCCCCCCCCCCCC)C(=O)c1cc(NS(=O)(=O)c2ccc(NN)nc2)c2ccccc2c1O
148 to 150 °C	Cc1ccc(Cc2cc(OCCCCCCCCCCCCP(=O)(O)O)ccc2S(=O)(=O)c2ccc(OCCCCCCCCCCCCP(=O)(O)O)cc2Cc2ccc(C)cc2)cc1
140 to 142 °C	CN1CCCC1=NC(=O)Nc1ccc(OCc2ccccc2)cc1
240 to 242 °C	O=C(Oc1cccc2c(OC(=O)c3ccc(OCc4ccccc4)cc3)c3c(OC(=O)c4ccc(OCc5ccccc5)cc4)cccc3cc12)c1ccc(OCc2ccccc2)cc1
198 to 201 °C	Cc1ccc(S(=O)(=O)N2CCOCCN(S(=O)(=O)c3ccc(C)cc3)CCN(S(=O)(=O)c3ccc(C)cc3)CCN(S(=O)(=O)c3ccc(C)cc3)CC2)cc1
180 to 190 °C	CCNC(=O)[C@@H]1CCCN1C(=O)[C@H](CCCNC(=N)N)NC(=O)[C@H](CC(C)C)NC(=O)[C@@H](Cc1ccc2ccccc2c1)NC(=O)[C@H](Cc1ccc(O)cc1)NC(=O)[C@H](CO)NC(=O)[C@H](Cc1c[nH]c2ccccc12)NC(=O)[C@H](Cc1c[nH]cn1)NC(=O)[C@@H]1CCC(=O)N1
122 to 124 °C	CC(=O)Nc1cc(C(=O)NC2OC(COC(C)=O)C(OC3OC(COC(C)=O)C(OC(C)=O)C(OC(C)=O)C3OC(C)=O)C(OC(C)=O)C2OC(C)=O)ccc1Cl (centres undefined)
90 to 100 °C	CC1CNc2c(cccc2S(=O)(=O)NC(CCCc2cn(C(c3ccccc3)(c3ccccc3)c3ccccc3)cn2)C(=O)N2CCC(C)CC2C(=O)NOCc2ccccc2)C1 (centres undefined)
122 to 124 °C	CC(C)[C@H](NC(=O)N(C)Cc1csc(N)n1)C(=O)N[C@@H](Cc1ccccc1)[C@H](O)[C@@H](O)[C@H](Cc1ccccc1)NC(=O)[C@@H](NC(=O)N(C)Cc1csc(N)n1)C(C)C
98 to 100 °C	CC(C)C(NC(=O)C(Cc1ccc(OCc2ccccc2)cc1)NC(=O)C(COCc1ccccc1)NC(=O)C(Cc1c[nH]c2ccccc12)NC(=O)OC(C)(C)C)C(=O)O (centres undefined) (Boc-WS(Bn)Y(Bn)V-OH; configuration not given here)
169 to 171 °C	CCC(C)(C)c1ccc(OCC(=O)Nc2cccc(C(=O)Nc3[nH]n(-c4c(Cl)cc(Cl)cc4Cl)c(=O)c3-n3nnn(-c4ccccc4)c3=S)c2)c(C(C)(C)CC)c1
114 to 123 °C	O=C(NCCCCCCCCCCCCNC(=O)C(O)C(O)C(O)C(O)COC1OC(CO)C(O)C(O)C1O)C(O)C(O)C(O)C(O)COC1OC(CO)C(O)C(O)C1O (centres undefined)
227 to 229 °C	CC(=O)OCC1OC(OC2C(COC(C)=O)OC(OC3C(COC(C)=O)OC(OCCBr)C(N4C(=O)c5ccccc5C4=O)C3OC(C)=O)C(OC(C)=O)C2OC(C)=O)C(OC(C)=O)C(OC(C)=O)C1OC(C)=O (centres undefined)

More lines, now with the values behind:

SMILES	melting point
CCCCCCCCCCCCc1ccc(N=Nc2ccc(C(N)CCNC(=O)CCN(CCC(=O)NCCN(C)c3ccc(N=Nc4ccc(CCCCCCCCCCCC)cc4[N+](=O)[O-])cc3)c3ccc(N=Nc4ccc(CCCCCCCCCCCC)cc4[N+](=O)[O-])cc3)cc2)c([N+](=O)[O-])c1 (centres undefined)	127 to 129 °C
COc1cc(OC)c(/C=C/C(c2ccc(OC)c(NC(N)=O)c2)S(=O)(=O)C(/C=C/c2c(OC)cc(OC)cc2OC)c2ccc(OC)c(NC(N)=O)c2)c(OC)c1 (centres undefined)	218 to 220 °C
O=C(O)CCCOc1c(Cl)cccc1Cl	66 to 67 °C
[C-]#[N+]c1c(Cl)cc(OC)cc1Cl	110 to 112 °C
CCN(CC)CCN=S(=O)(c1ccccc1)c1ccco1 (centres undefined)	133 °C
CC(C)CCCC(C)C1CCC2C3CC=C4CC(N(CCCNC(=O)CCCCCNc5ccc([N+](=O)[O-])cc5[N+](=O)[O-])S(=O)(=O)c5ccccc5[N+](=O)[O-])CCC4(C)C3CCC12C (centres undefined)	80 to 82 °C
COc1cc(OC)c(/C=C/C(c2ccc(OC)c(NCC(=O)O)c2)S(=O)(=O)C(/C=C/c2c(OC)cc(OC)cc2OC)c2ccc(OC)c(NCC(=O)O)c2)c(OC)c1 (centres undefined)	128 to 131 °C
CC(C)(C)OC(=O)NC(Cc1cc(I)c(Oc2cc(I)c(O)c(I)c2)c(I)c1)C(=O)O (centres undefined)	212 °C
CC(CC(CC(Sc1cc(C(C)(C)C)c(O)c(C(C)(C)C)c1)Sc1cc(C(C)(C)C)c(O)c(C(C)(C)C)c1)Sc1cc(C(C)(C)C)c(O)c(C(C)(C)C)c1)Sc1cc(C(C)(C)C)c(O)c(C(C)(C)C)c1 (centres undefined)	160 to 162 °C
CC(=O)OC(CN1C(=O)C2(CC(C)(C)N(C(C)=O)C(C)(C)C2)OC12CCCCCCCCCCC2)CN1C(=O)C2(CC(C)(C)N(C(C)=O)C(C)(C)C2)OC12CCCCCCCCCCC2	122 °C
CC(=O)OCC1OC(OC2C(COC(C)=O)OC(OC3C(COC(C)=O)OC(OCCBr)C(OC(C)=O)C3OC(C)=O)C(OC(C)=O)C2OC(C)=O)C(OC(C)=O)C(OC(C)=O)C1OC(C)=O (centres undefined)	179 to 181 °C
Cc1cc(F)c(-n2nc(C(F)(F)F)nc2NC(=O)C(F)(F)F)cc1C(S(=O)C(c1cc(-n2nc(C(F)(F)F)nc2NC(=O)C(F)(F)F)c(F)cc1C)C(F)(F)F)C(F)(F)F (centres undefined)	233 to 237 °C
CCCCCCCCCCCCc1ccsc1-c1ccc2c(c1)=C(C(C#N)C#N)c1cc3c(cc1=2)C(C(C#N)C#N)=c1cc(-c2sccc2CCCCCCCCCCCC)ccc1=3	232 to 233 °C
COC(=O)COc1cc(F)ccc1[N+](=O)[O-]	85 to 87 °C
O=C(c1ccccc1)c1ccc(C(Cl)(Cl)Cl)cc1	109 to 111 °C
COC(=O)c1cc(C(C)(C)C)c(OP2OP(Oc3c(C(C)(C)C)cc(C(=O)OC)cc3C(C)(C)C)OP(Oc3c(C(C)(C)C)cc(C(=O)OC)cc3C(C)(C)C)O2)c(C(C)(C)C)c1 (centres undefined)	185 to 200 °C
CCCCCCCCCCCCSc1cc(SCCCCCCCCCCCC)c2ccc3c(SCCCCCCCCCCCC)cc(SCCCCCCCCCCCC)c4ccc1c2c43	110 °C
O=S(=O)(C(/C=C/c1c(F)c(F)c(F)c(F)c1F)c1c(F)c(F)c(F)c(F)c1F)C(/C=C/c1c(F)c(F)c(F)c(F)c1F)c1c(F)c(F)c(F)c(F)c1F (centres undefined)	137 to 139 °C
CCOc1cc2c(cc1O)CCC1C2CCC2(C)C(O)CCC12 (centres undefined)	154 to 155 °C
O=C(O)CCC(CC=Cc1ccc(Cl)cc1)(C(=O)C=Cc1ccc(Cl)cc1)c1ccccc1 (centres undefined)	178 to 180 °C
O=P1(Oc2c(Br)c(Br)c(Br)c(Br)c2Br)OCC2(CO1)COP(=O)(Oc1c(Br)c(Br)c(Br)c(Br)c1Br)OC2 (centres undefined)	324 to 326 °C
CC(C)[Si](OC(=O)C(Cc1cc(I)c(Oc2cc(I)c(OCC3CO3)c(I)c2)c(I)c1)NC(=O)OC(C)(C)C)(C(C)C)C(C)C (centres undefined)	109 °C

— a melting point compilation (Tetko et al.)
